This is an account of results in patent US20140316217A1, “SYSTEM AND METHOD FOR MONITORING ANESTHESIA AND SEDATION USING MEASURES OF BRAIN COHERENCE AND SYNCHRONY” (priority 2013, published 2014).

Structures are written as SMILES. Where “and” joins values, the source holds several entries; their conditions need not be identical. Identical values can stand only once.

Test [1] relates to volunteers. As to conditions: for frequency range of increased power in the spectrogram compared to baseline: sedation, visually evident. The source says:
(§1) The power spectral density, also referred to as the power spectrum or spectrum, quantifies the frequency distribution of energy or power within a signal. The spectrogram is a time-varying version of the spectrum. […] In these spectrograms, frequencies are arranged along the y-axis, and time along the x-axis, and power is indicated by color on a decibel (dB) scale. […] Spectra and spectrograms were computed using the multitaper method, implemented in the Chronux toolbox (http://chronux.orq). The multitaper method was chosen specifically because it allows the spectral resolution to be set precisely, which is desirable in observing many anesthesia-related phenomena. Moreover, for a particular choice of spectral resolution, the multitaper method offers lower bias and lower variance than traditional nonparametric spectral estimation methods.
(§2) Group-level spectrograms were computed by taking the median across volunteers. Spectra were also calculated for selected EEG epochs. The resulting spectra were then averaged for all epochs, and 95% confidence intervals were computed via taper-based jackknife techniques. The spectral analysis parameters included window length T=4 s with 0 s overlap, time-bandwidth product TW=3, number of tapers K=5, and spectral resolution 2 W of 1.5 Hz. Peak power, and its frequency, was estimated for the dex-spindle, travelling peak, and frontal alpha oscillations for each individual subject. Averages across subjects were performed to obtain the group-level peak power and frequency for these oscillations.
(§3) To compare spectral and coherence estimates between groups, jackknife-based methods were used, namely the two-group test for spectra (TGTS), and the two-group test for coherence (TGTC), as implemented by the Chronux toolbox (http://www.chronukorg). This method accounts for the underlying spectral resolution of the spectral and coherence estimates, and considers differences to be significant if they are present for contiguous frequencies over a range greater than the spectral resolution 2 W. Specifically, for frequencies f>2 W, the null hypothesis was rejected only if the test statistic exceeded the significance threshold over a contiguous frequency range ≧2 W. For frequencies 0≦f≦2 W, to account for the properties of multitaper spectral estimates at frequencies close to zero, the null hypothesis was rejected only if the test statistic exceeded the significance threshold over a contiguous frequency range from 0 to max(f,W)≦2 W. A significance threshold of p<0.05 was selected for within group comparisons and p<0.001 for between group comparisons, applying a Bonferonni correction for multiple comparisons where appropriate.
Volunteers were instructed to close their eyes throughout the study to avoid eye-blink artifacts in the EEG. Volunteers were presented with auditory stimuli during the study and asked to respond by button presses to assess the level of conscious behavior. The stimuli consisted of the volunteer's name presented every two minutes. Button-press stimuli were recorded using a custom-built computer mouse with straps fitted to hold the first and second fingers in place over the mouse buttons. The mouse was also lightly strapped to the subject's hand using tape and an arterial line board to ensure that responses could be recorded accurately.
We applied an anti-aliasing filter and down-sampled the EEG data to 250 Hz before analysis. EEG signals were re-montaged to a nearest-neighbor Laplacian reference, using distances along the scalp surface to weigh neighboring electrode contributions. First, 2-minute EEG segments were selected from all subjects during the awake, eyes closed baseline. Eye closure facilitates distinguishing between normal awake, eyes-closed occipital alpha oscillations and the frontal alpha oscillations associated with anesthesia induced altered arousal. EEG data segments were selected based on the behavioral response.

Test [2] relates to volunteers. Particulars: for frequency range of increase in coherence on the coherogram compared to baseline: sedation.
Test [3] relates to patient. Particulars: anesthetized with ketamine alone or in combination with other anesthetic agents; cited from earlier work.
Test [4] concerns dopaminergic arousal pathway. The experiment in a line: Methylphenidate-induced emergence from isoflurane general anesthesia; plethysmography and blood gas experiments. Format: in vivo. The source says:
MPH can be used to restore consciousness, induce electroencephalogram changes consistent with arousal, and increase respiratory drive. The behavioral and respiratory effects induced by methylphenidate can be inhibited by droperidol, supporting the evidence that methylphenidate induces arousal by activating a dopaminergic arousal pathway.

The test system of test [5] is patients. Kind of test: Frontal EEG coherence analysis during sevoflurane and propofol general anesthesia (patients, Sedline monitor). Format: in vivo, human.
The test system of test [6] is patients. Kind of test: Frontal EEG spectral analysis during sevoflurane and propofol general anesthesia (patients, Sedline monitor). Format: in vivo, human. Particulars: mean±std.
Text: as §1, §2, §3

Setting [7] is: dexmedetomidine sedation, mean±std.
Setting [8] is: propofol-induced unconsciousness, dexmedetomidine sedation.
[9] abbreviates: dexmedetomidine sedation, propofol-induced unconsciousness.
Where [10] appears, read: propofol-induced unconsciousness.
Where [11] appears, read: general anesthesia, P<0.001 TGTC.

As for `Cc1cccc([C@H](C)c2cnc[nH]2)c1C` [dexmedetomidine], the “frequency range in which EEG power was lower than baseline” value in test [1] (dexmedetomidine sedation, P<0.05 TGTS) was 17.4-40 Hz. In test [1] (setting [7]), the “dex-spindle oscillation peak frequency (EEG power)” value was 13.1 Hz and ~13 Hz; the “dex-spindle oscillation peak power” value is −10.2 dB. In addition, the “frequency at which maximum power and coherence of spindles occur” value in test [1] (dexmedetomidine sedation, summary) is given as 13-14 Hz. Moreover, in test [1] (setting [8]), the slow oscillations power was 1.8 dB. Moreover, in test [1], the “frequency range of increased power in the spectrogram compared to baseline” value is reported as 2-15 Hz. Also, in test [2] (dexmedetomidine sedation), the “coherence peak frequency (dex-spindle)” value is listed as 13.3 Hz and the “peak coherence (dex-spindle)” value amounted to 0.78±0.08. Also, in test [2] (setting [9]), the “frequency range of decrease in coherence on the coherogram compared to baseline” value is listed as 0.1-1 Hz. Moreover, in test [2], the “frequency range of increase in coherence on the coherogram compared to baseline” value was 1-15 Hz.

For the compound `CNC1(c2ccccc2Cl)CCCCC1=O` (centres unmarked) [ketamine], in test [3], the BIS values entry is reported as “high BIS values”.

`COC(=O)C(c1ccccc1)C1CCCCN1` (centres unmarked) [methylphenidate]: the “emergence from general anesthesia” value in test [4] (isoflurane general anesthesia) is reported as “actively induces emergence from isoflurane general anesthesia”. In addition, the minute ventilation entry in test [4] (plethysmography and blood gas experiments) is reported as “increases minute ventilation”.

In the case of `CC(C)c1cccc(C(C)C)c1O` [propofol], in test [1] (setting [10]), the “frontal alpha oscillations power” value came out at 2.5 dB and the “size of slow oscillations compared with dexmedetomidine sedation” value is listed as “almost an order of magnitude larger”. Besides, the slow oscillations power in test [1] (setting [8]) is 19.2 dB. In addition, the “frequency range of increased power in the spectrogram compared to baseline” value in test [1] was 1-25 Hz. The “alpha oscillation coherence peak frequency” value in test [5] (general anesthesia) came out at 10.2 Hz. The “frequency range in which propofol exhibited increased EEG coherence versus sevoflurane” value in test [5] (setting [11]) was 11.7-19.5 Hz. For the same compound, the “alpha oscillation peak coherence” value in test [5] (propofol general anesthesia) is reported as 0.71 dB. Moreover, in test [6], the “alpha oscillation peak frequency (EEG power)” value is given as 10.3 Hz and the “alpha oscillation peak power” value was 2.1 dB. In addition, in test [2] (P<0.0005 TGTC), the “frequency range in which coherence was higher during propofol-induced unconsciousness than dexmedetomidine sedation” value is 9.5-11.7 Hz; the “frequency ranges in which coherence was larger during propofol-induced sedation than dexmedetomidine sedation” value was 19.8-26.4 Hz and 26.9-29.3 Hz. The “frequency range of decrease in coherence on the coherogram compared to baseline” value in test [2] (setting [9]) was 0.1-1 Hz. Moreover, the “frequency range of decreased slow oscillation coherence versus baseline” value in test [2] (propofol peak max (unconsciousness), P<0.025 TGTC) was 0.1-1.7 Hz. Moreover, in test [2] (propofol sedation), the “coherence peak frequency (traveling-peak)” value came out at 16.1 Hz and the “peak coherence (traveling-peak)” value is given as 0.69±0.05. In test [2] (setting [10]), the “alpha oscillation peak coherence” value came to 0.85±0.05 and the “centre of the narrow band of alpha oscillation coherence” value is given as approximately 10 Hz. In addition, the “frequency range of significant increase in coherence versus baseline” value in test [2] (propofol-induced unconsciousness, P<0.025 TGTC) is 4-15.9 Hz. Besides, in test [2], the “frequency range of increase in coherence on the coherogram compared to baseline” value is given as 1-25 Hz.

Turning to `FCOC(C(F)(F)F)C(F)(F)F` [sevoflurane], in test [5] (general anesthesia), the “alpha oscillation coherence peak frequency” value is given as 9.8 Hz, the “theta coherence peak frequency” value was 4.9 Hz and the theta peak coherence is listed as 0.58±0.1. Besides, in test [5] (setting [11]), the “frequency range in which sevoflurane exhibited increased EEG coherence versus propofol” value was 3.41-10.7 Hz. In test [5] (general anesthesia, summary), the “frequency at which maximum power and coherence of coherent alpha oscillations occur” value is on record as 10-12 Hz. The “frequency of coherent theta oscillations” value in test [5] (sevoflurane anesthesia) is listed as approximately 5 Hz. Also, the “alpha oscillation peak coherence” value in test [5] (sevoflurane general anesthesia) is recorded as 0.73±0.1. In test [6], the “alpha oscillation peak frequency (EEG power)” value turned out to be 9.2 Hz and the “alpha oscillation peak power” value came out at 4.3 dB.
